Where two headings read alike, the source gives them in different places. Numbered stars: 1 amine (or outer) side, 2 acyl side, 3 side chain; on linkers, the order of the positions; unused ones are H or OH. Bridge positions count the residues as written; N and C are the ends. Square brackets hold non-standard residues; d marks the D form. Peptide text beside a SMILES is read from it. X1 = C=C(N[*:2])c1nc(-c2nc(-c3nc(C(=O)OC)cs3)ccc2C(=O)[*:1])cs1; NMePhe(4-NO2) = CN[C@@H](Cc1ccc([N+](=O)[O-])cc1)C(=O)O; Tic(7-OH) = O=C(O)[C@@H]1Cc2ccc(O)cc2CN1; X2 = O=C(c1csc([C@H](CO)N[*:1])n1)[*:2]; NMeA = CN[C@@H](C)C(=O)O; Dhb = C/C=C(\N)C(=O)O; Dha = C=C(N)C(=O)O; Sar = CNCC(=O)O
Key:
TNIK [1] = molecular target: T1, TNIK (Homo sapiens, UniProt Q9UKE5); test: Surface plasmon resonance, binding of thiopeptides to immobilized biotinylated TNIK (single-cycle, then multicycle kinetics); design: Biotinylated TNIK (kinase domain, amino acids 1-314;); biotin (biotinylated protein); purchased Carna Biosciences (Kobe, Japan)
Method: 2.8. Surface plasmon resonance
In the initial experiment, binding affinities between the thiopeptides and TNIK were measured with a Biacore T200 instrument (GE Healthcare) at 25 °C. The assay buffer contained 50 mM Tris (pH 7.5), 150 mM NaCl, 10 mM MgCl2, 0.01% (v/v) tween-20 and 0.1% (v/v) DMSO. For wTP3, the assay buffer additionally contained ATP (f.c.: 1 mM).
Biotinylated TNIK was immobilized on a Biacore CAP chip (GE Healthcare) to a surface density of 950-1200 response units following the standard immobilization protocols provided by the manufacturer. The interaction sensorgrams were measured as single-cycle kinetics performed with five concentrations of the ligand sequentially flown over the chip at a flow rate of 15 μL/min allowing for 20 or 30 s association and 70 or 60 s for dissociation between the steps. The final dissociation step was allowed to proceed for 180 s. […]
was repeated in triplicate on a Biacore 8K instrument (GE Healthcare) using a multi cycle kinetics format. The experimental details were as above, except ATP was not added to the buffer for wTP3. Kinetic parameters and affinities of the interaction were determined assuming the standard 1:1 binding model using the Biacore software (GE Healthcare).
Reported KD values were calculated from the average measured association and dissociation rates (Table S5).
Target sequence in this assay (Q9UKE5 1-314): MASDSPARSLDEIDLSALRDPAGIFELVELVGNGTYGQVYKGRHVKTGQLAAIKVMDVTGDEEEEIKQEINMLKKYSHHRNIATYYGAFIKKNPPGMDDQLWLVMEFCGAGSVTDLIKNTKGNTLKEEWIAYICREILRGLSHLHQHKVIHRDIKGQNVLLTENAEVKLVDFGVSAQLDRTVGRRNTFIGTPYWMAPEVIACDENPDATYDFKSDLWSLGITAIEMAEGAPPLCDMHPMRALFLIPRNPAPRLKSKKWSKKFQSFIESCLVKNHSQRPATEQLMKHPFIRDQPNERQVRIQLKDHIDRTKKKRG

TNIK [2] = molecular target: T1, TNIK; test: Kinase selectivity profiling (STE-1 kit, ADP-Glo readout): TNIK; assay type: biochemical; conditions: 10 μM thiopeptide
Method: (§1) 2.9. Kinase inhibition assays with ADP-Glo
(§2) The ADP-Glo assay system was purchased from Promega. The kinase reaction buffer contained 50 mM Tris (pH 7.5), 10 mM MgCl2 and 0.01% (v/v) triton X-100. […]
(§3) The reactions were stopped by the addition of ADP -Glo reagent (1 volume), and the luminescent signal was developed following the manufacturer’s instructions. […]
(§4) Kinase selectivity profiling. A STE-1 kinase selectivity profiling kit from Promega was utilized to assay the compounds. The experiment was conducted following the manufacturer’s instructions, and the signal was developed using the ADP-Glo assay system as described above. All measurements were performed in triplicate. After background correction, the kinase activities were normalized to a no inhibitor control , and percent remaining activity values were calculated accordingly. […]
Target sequence in this assay (Q9UKE5 whole entry, the tested form may be a part): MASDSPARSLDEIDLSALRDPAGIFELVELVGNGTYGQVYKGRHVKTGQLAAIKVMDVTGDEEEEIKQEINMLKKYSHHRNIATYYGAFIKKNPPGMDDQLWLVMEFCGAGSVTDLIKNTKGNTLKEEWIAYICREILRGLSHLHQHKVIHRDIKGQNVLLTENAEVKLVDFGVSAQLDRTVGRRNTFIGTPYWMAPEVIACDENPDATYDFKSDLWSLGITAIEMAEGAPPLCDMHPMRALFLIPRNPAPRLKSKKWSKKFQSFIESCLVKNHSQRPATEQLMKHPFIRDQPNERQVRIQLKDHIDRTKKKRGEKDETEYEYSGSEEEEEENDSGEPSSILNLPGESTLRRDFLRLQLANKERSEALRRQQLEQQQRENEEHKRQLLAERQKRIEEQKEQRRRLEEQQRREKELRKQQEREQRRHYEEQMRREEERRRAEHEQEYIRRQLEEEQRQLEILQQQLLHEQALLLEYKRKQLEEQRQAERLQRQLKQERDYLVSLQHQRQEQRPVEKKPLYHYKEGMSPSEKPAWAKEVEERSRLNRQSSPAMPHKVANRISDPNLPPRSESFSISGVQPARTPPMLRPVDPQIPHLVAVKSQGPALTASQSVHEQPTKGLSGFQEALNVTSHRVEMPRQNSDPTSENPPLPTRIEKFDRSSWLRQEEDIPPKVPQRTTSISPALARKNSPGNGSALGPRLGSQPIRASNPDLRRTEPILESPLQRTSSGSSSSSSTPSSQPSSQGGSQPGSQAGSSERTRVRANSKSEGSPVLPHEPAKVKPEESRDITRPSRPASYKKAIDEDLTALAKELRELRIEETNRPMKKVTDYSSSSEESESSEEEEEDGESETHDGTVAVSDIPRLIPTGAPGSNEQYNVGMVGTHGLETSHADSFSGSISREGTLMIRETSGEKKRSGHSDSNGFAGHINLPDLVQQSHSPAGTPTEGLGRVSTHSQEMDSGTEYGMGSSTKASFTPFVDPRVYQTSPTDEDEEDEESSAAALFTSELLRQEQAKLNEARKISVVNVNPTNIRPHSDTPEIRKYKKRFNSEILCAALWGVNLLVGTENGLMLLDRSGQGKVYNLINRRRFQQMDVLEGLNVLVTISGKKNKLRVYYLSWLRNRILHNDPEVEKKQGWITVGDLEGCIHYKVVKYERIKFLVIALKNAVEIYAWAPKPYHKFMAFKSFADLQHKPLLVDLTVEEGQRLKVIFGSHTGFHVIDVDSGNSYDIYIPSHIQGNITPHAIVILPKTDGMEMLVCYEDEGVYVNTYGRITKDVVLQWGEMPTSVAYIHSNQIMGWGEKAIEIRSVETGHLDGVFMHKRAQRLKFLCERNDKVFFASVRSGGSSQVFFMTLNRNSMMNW

in vitro = conditions: buffer or solvent, pH 7.5
Method: (§5) Stability to glutathione. To a freshly prepared solution of glutathione (5 mM) in stability
(§6) buffer [50 mM HEPES (pH 7.5), 100 mM NaCl] was added a solution of analyte (1.5 mM
(§7) thiopeptide in DMSO; f. c.: 10 µM). The contents were mixed and transferred to a 37 °C
(§8) thermostat. At various time points (0.5, 1, 2, 4, 6, and 10 h) aliquots were withdrawn and
(§9) quenched with 2 volumes of methanol containing 30 mM iodoacetamide. The samples were
(§10) analyzed by LC/MS (0.3 µL; section 2.6) using method 3. Areas under the peak curve for all
(§11) thiopeptide-derived products in the sample (TIC chromatograms) were used to calculate
(§12) fractions of intact analyte. Thiopeptide half-life values were obtained from non-linear
(§13) regression (scipy)15 of experimentally measured values to the pseudo-first order
(§14) approximation for the reaction kinetics which can be used since [glutathione] >> [analyte].

[3] = system: HCT116 colon carcinoma cells; test: Cell viability assay (Cell Counting Kit-8); conditions: for cytotoxicity (cell viability) after 24 h incubation: 10 μM, thiopeptide acetate salts
Method: HCT116 cells were cultured in McCoy's 5A (Modified) Medium supplemented with 1% (v/v)
penicillin-streptomycin and 10% (v/v) fetal bovine serum (all from Thermo Fisher) in a
All assays were conducted using thiopeptide acetate salts prepared as follows. Strong
anion resin (AG® 1–X8 acetate form, analytical grade, quaternary ammonium 10~50 mg)
was first washed three times with 1.6 N acetic acid and three times with 0.16 N acetic acid.
Then, a thiopeptide solution ( 0.5~3 mg, dissolved in water/ acetonitrile [1:1, v/v; ~1 ml]) was
added to the resin. After 2 h on a rotary shaker, the peptide-resin suspension was ﬁltered
and the liquid phase was recovered. The resin was washed twice with water/acetonitrile (1:1,
v/v; 0.5 ml/wash), and the solutions were combined.
Cell viability assays. HCT116 cells were grown to 40–50% confluency in 96-well plates
that the final DMSO concentration is 1% (v/v) for every sample. In the first experiment (Fig.
S44a), the cells were grown for 24 h, and the incubation time was further extended to 48 h
In both cases, the cell viability was
directly assayed with Cell Counting Kit-8 (Dojindo) following the manufacturer’s instructions
allowing 4 h to develop the signal. Absorbance at 450 nm was measured on a Tecan M1000
PRO microplate reader (Tecan Group), and live cell counts were normalized to the DMSO
control. All experiments were performed in triplicate, and in most cases, replicated at least
once to analogous outcomes.

TNIK [4] = molecular target: T1, TNIK; test: ADP-Glo kinase inhibition assay; assay type: biochemical; design: Biotinylated TNIK (kinase domain, amino acids 1-314;); biotin (biotinylated protein); purchased Carna Biosciences (Kobe, Japan); conditions: 0.5 nM TNIK, 25 µM ATP, 15 µM MSTtide, 4-parameter logistic fit; for IC50: read-out: ADP-Glo IC50 against TNIK
Method: as §1
Target sequence in this assay (Q9UKE5 1-314): as the sequence (Q9UKE5 1-314) above
The ADP-Glo assay system was purchased from Promega. The kinase reaction buffer contained 50 mM Tris (pH 7.5), 10 mM MgCl2 and 0.01% (v/v) triton X-100. TNIK (1.25 nM) was incubated with various concentrations of analyte inhibitors in kinase reaction buffer at 25 °C for 10 min. After, the reactions were initiated by the addition of ATP and substrate […]
peptide (MSTtide, sequence: NH2-NKGYNTLRRKK-CONH2;ref 14 synthesized using the standard Fmoc SPPS techniques). The final mixtures containing 0.5 nM TNIK, 25 µM ATP, 15 µM MSTtide and variable concentration of the inhibitors were incubated at 25 °C for 30 min. The reactions were stopped by the addition of ADP -Glo reagent (1 volume), and the luminescent signal was developed following the manufacturer’s instructions. Luminesce was recorded on a Tecan M1000 PRO microplate reader (Tecan Group) with 1 s acquisition time and no signal attenuation. TNIK kinase activity was normalized to a no inhibitor control, and […]
values to the standard 4-parameter logistic curve model. […]

trypsin = system: T2, trypsin; test: Stability to agarose-immobilized trypsin (LC/MS); assay type: in vitro ADME; conditions: isolated enzyme trypsin, pH 7.9
T2 construct: purchased Thermo Fisher
Method: 2.10. Thiopeptide metabolic stability experiments
Stability to trypsin. To a solution of the analyte thiopeptide (15 µM) and the internal standard peptide (5 µM NH2-PEG5-wstndwdtnd-PEG5-CONH2;ref 16 lower case encoding is for D-amino acids; synthesized using the standard Fmoc SPPS techniques) in digestion buffer [50 mM tris, 100 mM NaCl, 10 mM EDTA, pH 7.9] was added agarose -immobilized TPCK-treated trypsin (Thermo Fisher; 1 µL of resin slurry; 100 µL final reaction volume ) that was previously washed with digestion buffer thrice. The mixture was agitated at 22 °C, and at various timepoints (0.5, 1, 2, 4, and 6 h) aliquots were withdrawn and quenched with 14 volumes of water/acetonitrile mixture [30: 70 (v/v) water: acetonitr ile with 0.1% (v/v) TFA]. […]

MINK = MINK (Homo sapiens, UniProt Q8N4C8); test: Kinase selectivity profiling (STE-1 kit, ADP-Glo readout): MINK; assay type: biochemical; conditions: 1 μM thiopeptide
Chain of MINK (Q8N4C8 whole entry): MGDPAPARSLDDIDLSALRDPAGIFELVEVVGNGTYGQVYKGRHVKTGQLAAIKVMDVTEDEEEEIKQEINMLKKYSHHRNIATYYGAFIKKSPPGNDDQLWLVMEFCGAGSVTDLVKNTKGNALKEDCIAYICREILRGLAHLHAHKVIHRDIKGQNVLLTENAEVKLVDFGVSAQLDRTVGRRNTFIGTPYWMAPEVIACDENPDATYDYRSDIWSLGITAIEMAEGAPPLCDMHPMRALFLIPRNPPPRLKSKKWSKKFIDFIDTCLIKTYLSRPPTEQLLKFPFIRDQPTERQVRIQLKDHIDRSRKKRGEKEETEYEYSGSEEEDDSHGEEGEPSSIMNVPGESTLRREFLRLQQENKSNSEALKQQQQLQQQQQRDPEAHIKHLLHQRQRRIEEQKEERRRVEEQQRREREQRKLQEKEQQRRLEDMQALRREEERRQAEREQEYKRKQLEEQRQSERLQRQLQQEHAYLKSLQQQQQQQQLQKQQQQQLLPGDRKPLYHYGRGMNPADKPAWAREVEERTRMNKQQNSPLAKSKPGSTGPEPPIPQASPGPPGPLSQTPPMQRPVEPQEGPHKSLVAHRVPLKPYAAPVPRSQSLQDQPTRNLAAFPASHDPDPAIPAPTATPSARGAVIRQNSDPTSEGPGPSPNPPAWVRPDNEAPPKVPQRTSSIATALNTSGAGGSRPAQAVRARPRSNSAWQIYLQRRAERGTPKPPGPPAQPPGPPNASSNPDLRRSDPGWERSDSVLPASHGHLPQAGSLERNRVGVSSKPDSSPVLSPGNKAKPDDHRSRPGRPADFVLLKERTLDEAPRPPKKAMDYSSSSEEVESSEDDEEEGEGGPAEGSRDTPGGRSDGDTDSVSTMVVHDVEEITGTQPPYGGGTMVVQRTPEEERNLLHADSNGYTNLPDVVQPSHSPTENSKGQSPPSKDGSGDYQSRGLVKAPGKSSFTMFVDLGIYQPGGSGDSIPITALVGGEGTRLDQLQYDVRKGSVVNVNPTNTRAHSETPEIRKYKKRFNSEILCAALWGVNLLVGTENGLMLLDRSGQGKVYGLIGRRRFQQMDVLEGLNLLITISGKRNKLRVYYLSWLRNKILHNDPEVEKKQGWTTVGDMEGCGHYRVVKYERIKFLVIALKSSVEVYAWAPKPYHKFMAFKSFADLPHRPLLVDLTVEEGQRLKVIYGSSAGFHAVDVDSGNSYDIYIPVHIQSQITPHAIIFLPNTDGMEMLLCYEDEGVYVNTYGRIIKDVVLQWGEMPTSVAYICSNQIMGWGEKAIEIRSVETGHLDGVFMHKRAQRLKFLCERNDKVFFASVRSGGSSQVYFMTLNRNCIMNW
Method: as §1, §2, §3, §4

[5] = Stability to glutathione (LC/MS); conditions: 5 mM glutathione in HEPES buffer, pH 7.5
Method: as §5, §6, §7, §8, §9, §10, §11, §12, §13, §14

[6] = Serum stability assay (LC/MS against internal standard); conditions: human, human serum diluted in TBS, pH 7.6
Method: The ratio of areas under the peak for the intact analyte over the internal standard (EIC
chromatograms generated with m/z ± 3 cutoff values) were used to calculate the extent of
analyte degradation. Thiopeptide half-life values were obtained from non-linear regression
(scipy)15 of experimentally measured values to the standard first order kinetic decomposition
Serum stability assay. To a solution of analyte thiopeptide (13.3 µM) and the internal
standard peptide in TBS [5 µM; buffer: 50 mM Tris (pH 7.6), 150 mM NaCl] human serum
(0.33 volumes; Cosmo Bio) was added on ice. The solutions were mixed well and transferred to a 37 °C thermostat. At various timepoints, aliquots were withdrawn and quenched with 2.3 volumes of methanol containing 30 mM iodoacetamide. The mixtures were incubated on
ice for 15 min and then at 25 °C for 30 min. The samples were then centrifuged (15300 g for
5 min), and the supernatant (0.5 µL) was analyzed by LC/MS (section 2.5) using method 6
1 – 10 min 1 – 81% B, linear ramp
Data analysis was conducted as for the trypsin digestion assays.

[7] = human serum (0.33 volumes; Cosmo Bio) added to thiopeptide and internal standard in TBS; conditions: 37 °C, up to various timepoints, time axis of Fig. 5c runs to 30 h
[8] = system: agarose-immobilized TPCK-treated trypsin (Thermo Fisher); test: agarose-immobilized TPCK-treated trypsin in digestion buffer [50 mM tris, 100 mM NaCl, 10 mM EDTA, pH 7.9]; conditions: 22 °C, up to 6 h
[9] = SPR kinetic data, binding to immobilized TNIK
[10] = average from three multicycle kinetic experiments, 1:1 binding model, 25 °C
[11] = SPR kinetic data, binding to immobilized TNIK, read-out: KD

Molecule	koff (TNIK [1]; [9]) [s⁻¹]	kon (TNIK [1]; [9]) [M⁻¹ s⁻¹]	KD (binding affinity to TNIK) (TNIK [1]; [10])	half-life at 10 µM (in vitro) [h]	cytotoxicity (cell viability) after 24 h incubation [3]	IC50 (TNIK [4]) [nM]	half-life at 15 µM (trypsin) [h]	Kd (TNIK [1]; [11]) [nM]	fragment found [7]	other results
C=C1NC(=O)[C@H](C)N(C)C(=O)[C@H](CCCNC(=N)N)NC(=O)CN(C)C(=O)/C(=C/C)NC(=O)[C@H](CCCNC(=N)N)NC(=O)[C@H](CC(C)C)NC(=O)[C@H](Cc2c[nH]c3ccccc23)NC(=O)[C@H](Cc2c[nH]c3ccccc23)NC(=O)c2ccc(-c3nc(C(=O)OC)cs3)nc2-c2csc(n2)C(=C)NC(=O)CNC(=O)/C(=C/C)NC(=O)[C@H](Cc2ccc([N+](=O)[O-])cc2)N(C)C(=O)[C@H]([C@@H](C)O)NC1=O [hTP8] (WWLR[Dhb][Sar]R[NMeA][Dha]T[NMePhe(4-NO2)][Dhb]G; linker N-C via X1)	0.00256	1.21e+06	single-digit	6.4 ± 0.1	more cytotoxic than a small molecule control, NCB0846	1180 ± 160	4.9 ± 0.6	–	–	Kd (TNIK [1]; average from three multicycle kinetic experiments, 1:1 binding model, 25 °C, read-out: KD (binding affinity to TNIK)): 2.1 nM; suppression of TNIK activity (TNIK [2]): 94%; concentrations at which strongly cytotoxic ([3]; dose-dependent assay): above 5 µM; IC50 ([3]; read-out: IC50, cell viability, dose-dependent 48 h incubation): 7200 nM
C=C1NC(=O)[C@H](CC(C)C)NC(=O)[C@H](CC(N)=O)NC(=O)[C@H](CO)NC(=O)[C@H](CCCNC(=N)N)NC(=O)[C@H](CCCNC(=N)N)NC(=O)CN(C)C(=O)[C@H](C)N(C)C(=O)[C@H](CC(C)C)NC(=O)[C@H](CCCNC(=N)N)NC(=O)[C@@H]2CCCN2C(=O)[C@@H]2Cc3ccc(O)cc3CN2C(=O)[C@H]([C@@H](C)O)NC(=O)[C@H](Cc2c[nH]c3ccccc23)NC(=O)c2ccc(-c3nc(C(=O)OC)cs3)nc2-c2csc1n2 [hTP15] (WT[Tic(7-OH)]PRL[NMeA][Sar]RRSNL; linker N-C via X1)	0.0216	4.78e+06	single-digit	101 ± 7	–	150 ± 10	1.4 ± 0.1	4.5	–	inhibition of MINK (MINK): 60%; ADP-Glo IC50 against TNIK (TNIK [4]): sub-μM
C=C1NC(=O)CN(C)C(=O)[C@H](CC(N)=O)NC(=O)c2csc(n2)[C@H](CO)NC(=O)[C@H](Cc2c[nH]c3ccccc23)NC(=O)[C@H](Cc2c[nH]c3ccccc23)NC(=O)c2ccc(-c3nc(C(=O)OC)cs3)nc2-c2csc(n2)C(=C)NC(=O)[C@H](C)NC(=O)/C(=C/C)NC(=O)[C@@H]2Cc3ccc(O)cc3CN2C(=O)[C@H](Cc2ccc([N+](=O)[O-])cc2)N(C)C(=O)CN(C)C(=O)C(=C)NC1=O [wTP12] (WW[X2]N[Sar][Dha][Dha][Sar][NMePhe(4-NO2)][Tic(7-OH)][Dhb]A; linker N-C via X1)	0.0597	308000	–	–	inactive	1270 ± 90	> 100	194	–	half-life at 10 µM [5]: 16.4 ± 2 h; half-life at 10 µM [6]: 56.3 ± 6.4 h
WLRTgRaSTfTG	–	–	–	–	–	–	–	–	demethylated but otherwise undigested thiopeptides	–
WSCNgSSgfyTA	–	–	–	–	–	–	–	–	demethylated but otherwise undigested thiopeptides	not cleaved [8]: did not degrade (6 h); completely stable; τ1/2 >100 h

From paper PMC10979747 (Journal of the American Chemical Society, 2024)
